A short description of data set [1]: Measured lipophilicity of tazarotene. The format is physicochemical.
The next data set in a line: Solubility of tazarotene. In kind it is physicochemical. On the procedure: This was due to the extremely low solubility of Tazarotene in 0.9% saline, which was determined to be less than 1 μg/mL. Therefore, it was difficult to see any differences in the release profiles of different formulations. Work began to search for a release medium that would differentiate the release profiles of all formulations.

Data set [2] in a line: Plasma concentrations after topical and oral dosing of tazarotene. The format is in vivo, patients. The note with it: for Cmax: human, po, read-out: TAZAROTENE Cmax. How it is done: […] For the most part tazarotene is not observed in the plasma after topical or oral administration. Facile hydrolysis by pre-systemic metabolism rapidly generates the free acid. […] It is important to note that these are plasma concentrations and the eye plasma distribution ratio is 0.02. Over 90% of all patients in the phase 3 clinical trials had concentrations of the parent compound, tazarotene, <1 ng/mL with the highest being 6 ng/mL.
Oral delivery of 1.1 mg and 6 mg multiple doses led to 28.9 ng/mL and 227 ng/ml peak levels with a 2.56 ng/mL trough. This corresponds to a maximum possible 4 ng/mL ocular level for the highest dose. FIG. 11 depicts the tissue distribution of tazarotenic acid. The eyes show a 2% tissue/plasma ration in the rat. It should be noted that tazarotenic acid is 99% protein bound and distribution is limited to unbound drug.

The test system of data set [3] is PVR induced by human RPE cells. Nature of the data set: PVR model with retinoid implants, Fastenberg scale. In kind it is in vivo. The text has this:
PLA and PLGA implants 1.5 mm in diameter and 3 mm in length were fabricated by extrusion of the polymer drug blend. Tazarotenic acid (the free acid of Tazarotene) Tazarotene and 13-cis-retinoic acid were loaded into the implants at 10% concentrations. Briefly, pigmented rabbits were vitrectomized followed by intravitreal injection of 500,000 human RPE cells. After injection of the RPE cells the retinoid implants were placed into the vitreous and anchored to the sclera with the suture used to close the sclerotomy.
The eyes were examined weekly for 4 weeks. Severity of PVR was graded based on the Fastenberg scale. At 4 weeks gross pathology and limited histopathology were conducted.

A short description of data set [4]: Intraocular pharmacokinetics after single intravitreal injection of Tazarotene. In kind it is in vivo, female New Zealand White rabbits. The note with it: rabbit; for concentration at 2 hr / concentration at 24 hr / half-life: female, New Zealand White; for concentration at 2 hr / concentration at 24 hr: other: intravitreal injection; for concentration at 2 hr: 2 hr post dose; for concentration at 24 hr: 24 hr post dose; for half-life: topical or ocular. How it is done:
The intraocular pharmacokinetics of Tazarotene was assessed in female New Zealand White rabbits following a single intravitreal injection. The rabbits were dosed with bilateral intravitreal injections of Tazarotene (1250 ng in 50 μL). At 0.5, 1, 2, 4, 8, 12, and 24 hr post dose, animals were sacrificed and the aqueous humor, vitreous humor, and retina samples were analyzed. […] The Tazarotene concentration in the retina was close to its vitreal concentration at all time points, declining from 859±131 ng/g at 2 hr post dose to 93.1±28.9 ng/g by 24 hr post dose. […] It was shown that Tazarotene has a relatively long intravitreal half-life and that the retinal concentration parallel the vitreous when given as a neat injection. However, despite a very low solubility the clearance of Tazarotene from the retina is fast enough to require sustained release for extended duration of action.

The next data set has as its system photoreceptors. Put plainly: Rhodopsin mutant transgenic rat models of retinal degeneration. The format is in vivo, Transgenic S334ter rats. As to conditions: i.p., S334ter line 3 and line 4. On the procedure:
The objective of this study was to determine the efficacy of various retinoids in preventing retinal damage or improving retinal survival in rhodopsin mutant transgenic rat models of retinal degeneration. The overall goal of the research was to investigate potential photoreceptor survival in mutant rhodopsin transgenic rats using RAR α, RAR β γ, and RXR retinoid agonists.
The experimental design was straightforward. A compound was injected daily to line 3 and every two days for line 4 animals (i.p.) for a given period and animals were sacrificed at the end by CO2 overdose followed immediately by vascular perfusion of mixed aldehydes. Two litters of rats were used:
1. Transgenic S334ter-3 rats. Line 3 bears a rhodopsin mutation S334ter. […] Injection of a compound will be given daily from PD 6 (post-delivery day 6) to PD 20.
2. Transgenic S334ter-4 rats. Line 4 bears a rhodopsin mutation S334ter. Animals of this line experience a 80% loss of photoreceptors by 60 days after birth. The ONL is reduced to one row of nuclei. Injection of a compound will be given every other day from PD 25 to PD 60.
For the line 3 animals, treatment started at PD 6 and the endpoint was PD 20. For the line 4, injection began at PD 25 and ended at PD60 when eyes were harvested. Eyes were embedded in an Epon/Araldite mixture for sectioning at 1 μm thickness along the vertical meridian. Protection of photoreceptors was be evaluated by counting the rows of nuclei in the outer nuclear layer.
The outcome was a measure of retinal outer layer thickness, and cytology over an 8 week period. Compounds included the retinoid agonists tazarotene (RAR β γ), AGN 195183 (RAR α) and AGN 194204 (RXR). […] This is a fairly harsh model and as such the modest improvement by tazarotene is quite significant.

Data set [5] deals with retinal function and structure. Put plainly: Blue light retinal degeneration model. The note with it: daily oral doses for five days before 12000 lux blue light, eight hours. In kind it is in vivo, Sprague dawley rats. How it is done:
AGN 194310, AGN 194204, tazarotene and AGN 199852 were evaluated in the blue light retinal degeneration model. Sprague dawley rats were pretreated for five days with daily oral doses of the retinoids. The rats were then exposed to high intensity light, 12000 lux blue fluorescent, for eight hours. Five days post exposure the retinal function was assessed by full flash ERG and structure by outer nuclear layer thickness.

[6] abbreviates: retina, 1250 ng, read-out: Tazarotene concentration in the retina.
Where [7] appears, read: vitreous humor, 1250 ng intravitreal, read-out: Tazarotene concentration in the vitreous humor.

Broadly, the logP is a log measure of how a compound divides between an organic and an aqueous phase. Read a high logP as higher lipophilicity. Usually solubility stands for how much of the substance goes into solution per volume. The Cmax is the highest concentration seen after dosing.

SMILES strings stand for the structures. Values after ≈ are worked out from the molar mass of the structure shown. Read-outs that look alike come from different tables or passages of the source.

For the compound `CCOC(=O)c1ccc(C#Cc2ccc3c(c2)C(C)(C)CCS3)nc1` [Tazarotene, Ethyl 6-[(4,4-dimethylthiochroman-6-yl)ethynyl]nicotinate], the logP in data set [1] was determined as 4.3. Also, in data set [1] (pH 7.4, value marked measured in Table 3, read-out: log D pH 7.4 (measured)), the logD stood at 4.3. The solubility in the data set “Solubility of tazarotene” (0.9% saline, saline or isotonic, read-out: solubility in 0.9% saline) was under 1 µg/mL; in “Solubility of tazarotene” (water, read-out: solubility in water), 1 µg/mL (≈ 2.85 µM). In addition, the peak concentration (Cmax) in data set [2] (plasma, 1.1 mg/Day, plasma, Oral 1.1 mg/Day, in 95%) is under 0.1 ng/mL; in data set [2] (plasma, 3 mg/Day, plasma, Oral 3.0 mg/Day), under 0.1 ng/mL; in data set [2] (plasma, 6 mg/Day, plasma, Oral 6.0 mg/Day) it was under 0.1 ng/mL. Besides, the “highest plasma concentration of tazarotene in phase 3 clinical trials” value in data set [2] (in vivo) is 6 ng/mL. In data set [2] (over 90% of all patients), the “plasma concentration of tazarotene in phase 3 clinical trials” value is recorded as under 1 ng/mL. Further, the “TAZAROTENE Cmax” value in data set [2] (plasma, Topical Gel 0.1%, for >90%) is “BLQ for >90%”. Also, the “safety by gross pathology and limited histopathology” value in data set [3] (at 4 weeks) is “good safety profile”. For the same compound, the “eyes progressed to traction retinal detachment” value in data set [3] (at 28 days, 10% loaded PLA/PLGA implants, intravitreal) is reported as 12%. The concentration at 2 hr in data set [4] (setting [6]) came out at 859 ± 131 ng/g; in data set [4] (setting [7]), 578 ± 77 ng/g. For the same compound, the concentration at 24 hr in data set [4] (setting [6]) came out at 93.1 ± 28.9 ng/g; in data set [4] (setting [7]) it was 115 ± 33 ng/g. In addition, the half-life was 7.63 h in data set [4] (retina, 1250 ng, read-out: mean t1/2 of elimination from the retina (converted)) and 9.22 h in data set [4] (vitreous humor, 1250 ng, read-out: mean half-life (t1/2) in vitreous humor (converted)). The “mean vitreal clearance (Cl)” value in data set [4] (in vivo) is 0.123 mL/h. Besides, in data set [4] (in vivo), the vitreal clearance worked out at 2.95 mL/day. Further, the “protection of photoreceptors (outer nuclear layer)” value in the data set on photoreceptors is listed as “only compound to show efficacy”. Besides, in data set [5], the “protection of retinal function (ERG) and structure (outer nuclear layer thickness)” value is “significantly protect both retinal function and structure”.
